Nine compounds from US4764617A, “Quinaldinamide derivatives” (Nippon Chemiphar Co., Ltd., priority 1986, dated 1988) can be followed below.

The subject of data set [1] is anemic decerebrated rigidity. Put plainly: Effect on anemic decerebrated rigidity (rigidity relieving effect, EMG of forelimb M. triceps brachii). Format: in vivo, rat (Wister male rats). Conditions: rat; for inhibition in vivo at 3 mg/kg: iv, 10 min, 3 mg/kg through the femoral vein, 10 minutes after administration, * fumarate, ** oxalate, read-out: Relieving Rate (suppression rate of EMG). The procedure: The experiment was performed using specimen of anemic decerebrated rigidity produced in rats according to the method of Fukuda, H., Ito, T., Hashimoto, S., and Kudo, Y.; Japan, J., Pharmacol., 24, 810 (1974). Wister male rats (body weight: 270 to 350 g) were held on their backs and incised at their cervices under etherization. After the trachea and common carotid arteries were exposed, the trachea was cannulated and the bilateral common carotid arteries and esophagus were then double-[…] cut. Subsequently, its occipital bone was exposed through which a circular hole was bored to double-ligate the centrally extending basilar artery. As each rat started coming out of anesthetization, its front limbs became rigid. Measurement was conducted by recording electromyographic (EMG) response from the muscle of the forelimb (M. triceps brachii) of the rat in the rigid state. The EMG pulses were converted to accumulated values every 10 seconds and recorded as a histogram on a recorder. The effect of each test compound on the rigidity was evaluated in terms of the suppression rate. This rate was calculated first by determining the area (see FIG. 1) of a decreased EMG pulse part on the histrograpm upon passage of 10 minutes after administration of a physiological saline solution of each test compound (3 mg/kg) through the femoral vein and then in accordance with the following equation: Suppression rate (%)=(a/A)×100 wherein a means an EMG pulse area decreased as a result of the administration of the test compound; and A means an EMG pulse area observed when no test compound was administered (control).

The nature of data set [2]: Acute toxicity (LD50, up-and-down method). Particulars: in vivo; iv, tail vein, ddN male mouse; * fumarate, ** oxalate. How it is done: LD50 was determined by a known up-and-down method using ddN male mouse. The test compound was dissolved in a physiological saline solution, and the resulting solution was administered into the mouse through the tail vein.
For data set [3], the system named is glutamic acid at neuromuscular junctions of crayfish (opener muscles of the first walking legs). The experiment in a line: Blocking effects on glutamic acid at neuromuscular junctions of crayfish (suppression of L-glutamic acid-induced depolarization). Conditions: test compound 2×10^-4 M, 5-minute pretreatment; L-glutamic acid 10^-4 M; 200 µM. The procedure: The method of Ishida et al., [(J. Physiol., 298, 301-319 (1980)] and that of Shinozaki et al. [Comp. Biochem. Physiol., 70c, 49-58 (1981)] were followed. The opener muscles of the first walking legs of crayfish were used as experimental materials. The neuromuscular sample was held in a bath in which a physiologicl solution [NaCl (195 mM), CaCl2 (18 mM, KCl (5.4 mM), tris-maleate buffer (pH 7.5, 10 mM), and glucose (11 mM)] for use with the cray fish was perfused at room temperature and at a constant flow rate. A glass micro-electrode filled with a 3M-KCl solution was inserted in a central part of the muscle fiber to intracellularly record the changes in the potential of the muscular cell membrane.
The blocking effect of each test compound on glutamic acid was evaluated in terms of the suppression rate to depolarization which was induced by bath-applying L-glutamic acid (10^-4 M) in a 5-minute pretreatment with a solution of the test compound (2×10^-4 M).

Structures can show the parent of a compound that is named as a salt.

Consider `CCN(CC)CCC(NC(=O)c1ccc2ccccc2n1)c1ccccc1` (centres unmarked) [Compound 2, N-(3-diethylamino-1-phenylpropyl)quinaldinamide], for which, in data set [1], the inhibition in vivo at 3 mg/kg came to 24.6%. The same compound showed an LD50 in data set [2] of 18.9 mg/kg.

In the case of `O=C(NC(CCN1CCCC1)c1ccccc1)c1ccc2ccccc2n1` (centres unmarked) [Compound 4, N-(1-phenyl-3-pyrrolidinopropyl)quinaldinamide], the inhibition in vivo at 3 mg/kg in data set [1] was determined as 19.6%. In data set [2], this compound registered an LD50 of 17.2 mg/kg.

Turning to `O=C(NC(CCN1CCCCC1)c1ccccc1)c1ccc2ccccc2n1` (centres unmarked) [Compound 5, N-(1-phenyl-3-piperidinopropyl)quinaldinamide], the inhibition in vivo at 3 mg/kg in data set [1] was found to be 18.8%. Also, the “Glutamic Acid-Blocking Rate (suppression rate to depolarization)” value in data set [3] came out at 66%. Further, in data set [2], the LD50 came to 24.8 mg/kg.

In the case of `O=C(NC(CCN1CCCCCC1)c1ccccc1)c1ccc2ccccc2n1` (centres unmarked) [Compound 6, N-[3-(perhydroazepin-1-yl)-1-phenylpropyl]quinaldinamide], in data set [1], the inhibition in vivo at 3 mg/kg was found to be 12.2%. In data set [2], this compound returned an LD50 of 15.2 mg/kg.

`Cc1ccccc1C(CCN1CCCCC1)NC(=O)c1ccc2ccccc2n1` (centres unmarked) [Compound 7, N-[1-(2-methylphenyl)-3-piperidinopropyl]quinaldinamide]: the inhibition in vivo at 3 mg/kg in data set [1] is 11.2%. Moreover, the LD50 in data set [2] is 23.5 mg/kg.

Consider `Cc1cccc(C(CCN2CCCCC2)NC(=O)c2ccc3ccccc3n2)c1` (centres unmarked) [Compound 8, N-[1-(3-methylphenyl)-3-piperidinopropyl]quinaldinamide], for which the inhibition in vivo at 3 mg/kg in data set [1] amounted to 11.7%. The compound further displayed an LD50 in data set [2] of 25.4 mg/kg.

`CCN(CC)CCNC(=O)c1ccc2ccccc2n1` [Control Compound 1, N-(2-diethylaminoethyl)quiinaldinamide fumarate, reference compound]: the inhibition in vivo at 3 mg/kg in data set [1] was 1.2%. In data set [3], the “Glutamic Acid-Blocking Rate (suppression rate to depolarization)” value is reported as 30%.

In the case of `Cc1ccc(C(=O)C(C)CN2CCCCC2)cc1` (centres unmarked) [Control Compound 2, 2,4'-dimethyl-3-piperidinopropiophenone hydrochloride, reference compound], the inhibition in vivo at 3 mg/kg in data set [1] is 4.8%.

As to `CCN(CC)CCNC(=O)c1ccc2ccccc2n1` [N-(2-diethylaminoethyl)quinaldinamide, reference compound], the “rigidity relieving effect (in words)” value in data set [1] (in vivo) is “very weak rigidity relieving effect”.
